Measurements from patent publication US5506239A, “Carbostyril derivative and platelets aggregation inhibitory agent” (Otsuka Pharmaceutical Co., Ltd., priority 1991, dated 1996).

How the values were obtained:
[1] = system: platelets; assay: Platelets aggregation inhibitory activity (method of Born et al.), ADP-induced, human PRP (Pharmacological Test I); assay type: cell-based, man; details: 7.5 μM ADP, 37° C., read-out: IC50 ADP (50% platelets aggregation inhibition)
Procedure: (§1) The platelets aggregation inhibitory activity of each test compound was measured by the method of Born et al. [J. Physiol., London, 162, 67 (1962)], using Platelets Aggregation Tracer manufactured by Nikoh Bioscience Co., Ltd.
(§2) 9 volumes of a blood collected from person was mixed with 1 volume of a 3.8% aqueous sodium citrate solution. Part of the mixture was subjected to centrifugation at 1,100 rpm for 10 minutes to obtain a platelet rich plasma (PRP). The remainder of the mixture was also subjected to centrifugation at 3,000 rpm for 10 minutes to obtain a platelet poor plasma (PPP).
(§3) The number of platelets in the PRP was measured using Coulter Counter manufactured by Coulter Electronics Inc. Then, the PRP was diluted with the PPP so that the number of platelets in the dilution became 300,000, whereby a PRP solution was prepared.
(§4) 200 μl of this PRP solution and 2 ml of a solution containing a test compound at a given concentration were placed in an aggregation measurement cell and heated at 37° C. for 1 minute. Thereto was added 20 μl of adenosine diphosphate (ADP manufactured by Sigma Co.) or a collagen suspension (Collagen Reagent manufactured by Horm, Hormon-Chemie, Gmbh) to induce aggregation of platelets. The resulting mixture in the cell was measured for change of transmittance, after which a platelets aggregation curve was prepared. Incidentaly, the concentration of ADP or collagen was selected so that the final Concentration became 7.5 μM or 20 μg/ml.
(§5) Using the platelets aggregation curve, there was calculated a maximum aggregation rate (MAR) of platelets using the followoing formula: […]
(§6) wherein a represents a transmittance of the PRP obtained in the same manner; c represents a transmittance of the PPP obtained in the same manner; and b represents a transmittance at the maximum change, of the PRP solution containng the test compound and the aggregation inducer.
(§7) A MAR was also calculated as above, for the control containing no test compound.
(§8) Using the above two MARs, there were calculated platelets aggregation inhibitions (%) of each test compound at various concentrations using the following formula.
(§9) Inhibition=[1-(MAR of PRP solution containing test compound)/(MAR of PRP
(§10) solution containing no test compound)]×100
(§11) Using the above obtained platelets aggregation inhibitions (%) of each test compound at various concentrations, there was calculated a concentration (IC50) of each test compound for 50% platelets aggregation inhibition.

[2] = system: platelets; assay: Platelets aggregation inhibitory activity (method of Born et al.), collagen-induced, human PRP (Pharmacological Test I); assay type: cell-based, man; details: 20 μg/ml collagen, 37° C., read-out: IC50 Collagen (50% platelets aggregation inhibition)
Procedure: as §1, §2, §3, §4, §5, §6, §7, §8, §9, §10, §11

[3] = system: mongrel dogs; details: dog, in vivo, 300 mg/kg
Procedure: The heart rate-increasing activity and blood pressure hypotensive activity of each test compound were measured by the following method, using mongrel dogs each weighing 10-20 kg. That is, said dogs were anesthesized by intravenous injection of pentobarbital sodium, then fixed at the back, and tested under artificial respiration. The blood pressures of the dogs were measured by a blood pressure measuring transducer (P23×L manufactured by Gould Statham Instruments, Inc.) via cannula inserted into the femoral artery. The heart rates of the dogs were measured using the pulse wave of the blood pressure of each dog, via a tachometer. The signals of these testng apparatuses were recorded on a thermal pen-type recorder (Recti-Horize 8K manufactured by Nippon Denki-San-ei Sha).
Some of the compounds obtained in the above Examples were used as test compounds. […] Then, the heart rate of each dog was measured according to the above method and a maximum change in heart rate was calculated.

[4] = system: platelets; assay: Inhibition of collagen-induced platelets adhesion, washed platelets (Pharmacological Test III); assay type: cell-based, man; details: Platelet, 50 μg/ml collagen, human washed platelets, read-out: Inhibition (%) of collagen-induced platelets adherence
Procedure: A blood was collected from a healthy person with normal platelets function by addition of 0.1% disodium ethylenediaminetetraacetate (EDTA.4Na) and immediately subjected to separation of a platelet rich plasma (PRP). The PRP was washed twice with a Tyrode's buffer solution (50mM TRIS, 0.1% EDTA, Ca (-), Mg (-), 0.14% BSA added, pH=7.4), and suspended in the buffer solution so that the number of platelets in the resulting suspension became 300, 000/ml, to obtain a platelets suspension (EDTA-WP). 4 mg of Type I manufactured by Sigma Co., derived from a bovine skin was dissolved in 0.25 ml of acetic acid (83.5 mM); 8 ml of distilled water was added thereto; an ultrasonic wave was applied to the mixture at 4° C. for 2 minutes; 5 ml of the supernatant liquid was separated as a collagen solution. Each test compound was dissolved in dimethylformamide (DMF) so as to give a concentration of at least […] when possible, to prepare a test compound solution. The change in turbidity of platelets suspension was recorded as a change in transmitted light emitted from a glass cell containing the suspension, using a platelets aggregation tracer manufactured by Nikoh Bioscience K.K., generally used in the test of platelets aggregation function, whereby the adherence of platelets was measured. Incidentally, in recoridng the change in transmitted light, the sensitivity of the recorder was 5 times as high as that used generally. 200 μl of the EDTA-WP was placed in a glass cell exclusively used for the above platelets aggregation tester. Further, 1 μl of the test compound solution was added. The mixture was incubated at room temperature for 5 minutes. Then, the cell was set in the platelets aggregation tracer and was allowed to stand for 1 minute until the temperature became 37° C. Thereafter, about 20 μl (50 μg/ml) of the collagen solution was added, and the adherence of platelets were measured.
The inhibitions (%) of collagen-induced platelets adhesion by each test compound at various concentrations were calculated using the following formula.
Inhibition (%)=[1-(platelets adherence when test compound added)/
(platelets adherence when no test compound added)]×100

[5] = molecular target: T1, cyclic AMP phosphodiesterase (Homo sapiens, UniProt Q14432); assay: Cyclic AMP phosphodiesterase inhibitory activity, enzyme from human platelets (Pharmacological Test IV); assay type: biochemical, man; details: 0.4 μM cyclic AMP substrate, 30° C., 20 minutes, human platelet enzyme; read-out: IC50 (50% phosphodiesterase inhibition concentration)
T1 construct: the resulting supernatant liquid was used as a crude enzyme solution; from tissue; host or cells: human platelets (from platelet-rich plasma)
T1 sequence (Q14432 whole entry): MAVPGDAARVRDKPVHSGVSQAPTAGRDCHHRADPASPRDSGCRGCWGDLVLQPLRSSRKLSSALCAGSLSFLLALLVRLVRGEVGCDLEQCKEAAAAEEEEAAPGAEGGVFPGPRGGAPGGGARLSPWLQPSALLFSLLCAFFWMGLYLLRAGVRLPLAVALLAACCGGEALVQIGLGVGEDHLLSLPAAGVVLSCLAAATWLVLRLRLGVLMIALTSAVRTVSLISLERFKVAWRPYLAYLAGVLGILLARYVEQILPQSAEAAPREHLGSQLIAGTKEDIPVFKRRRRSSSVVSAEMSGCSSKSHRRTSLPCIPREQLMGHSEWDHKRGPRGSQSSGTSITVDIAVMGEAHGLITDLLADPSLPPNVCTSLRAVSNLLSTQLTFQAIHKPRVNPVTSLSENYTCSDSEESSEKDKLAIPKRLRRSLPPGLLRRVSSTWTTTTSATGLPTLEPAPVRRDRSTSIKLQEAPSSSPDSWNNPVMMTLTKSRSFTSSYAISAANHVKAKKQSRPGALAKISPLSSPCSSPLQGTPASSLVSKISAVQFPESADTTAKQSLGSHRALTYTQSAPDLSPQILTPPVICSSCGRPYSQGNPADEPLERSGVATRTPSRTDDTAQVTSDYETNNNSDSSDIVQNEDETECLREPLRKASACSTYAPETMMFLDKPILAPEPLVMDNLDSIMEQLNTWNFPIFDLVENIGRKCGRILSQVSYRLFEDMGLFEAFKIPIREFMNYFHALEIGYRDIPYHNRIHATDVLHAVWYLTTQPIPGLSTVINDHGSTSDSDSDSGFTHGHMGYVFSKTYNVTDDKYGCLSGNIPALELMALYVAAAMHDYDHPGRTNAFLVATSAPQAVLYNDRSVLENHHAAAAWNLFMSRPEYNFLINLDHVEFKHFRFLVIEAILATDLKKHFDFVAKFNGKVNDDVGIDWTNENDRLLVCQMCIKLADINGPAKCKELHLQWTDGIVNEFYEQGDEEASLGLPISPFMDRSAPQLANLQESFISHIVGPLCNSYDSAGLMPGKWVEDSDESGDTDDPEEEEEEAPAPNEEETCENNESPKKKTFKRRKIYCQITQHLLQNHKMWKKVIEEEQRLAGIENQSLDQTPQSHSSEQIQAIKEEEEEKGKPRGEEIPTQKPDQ

SMILES | IC50 ([1]; Homo sapiens, Platelet) [µM] | Maximum change in heart rate [3] [beats/minute] | IC50 ([2]; Homo sapiens, Platelet) [µM] | further results
O=c1ccc2cc(OCCCCN(CCN3CCC(O)CC3)CC3CCCCCCC3)ccc2[nH]1 [Example 15] | 10 | 1 | – | IC50 [2]: 3.6 µM
O=c1ccc2cc(OCCCCN(CCN3CCC(O)CC3)CC3CCCCCCC3)ccc2[nH]1 [Example 16] | – | – | – | IC50 [1]: 6.3 µM; IC50 [2]: 7.4 µM; inhibition at 10 µM [4]: 48%
O=C(CN(CCCCOc1ccc2[nH]c(=O)ccc2c1)CC1CCCCCCC1)N1CCC(O)CC1 [Example 19] | 6.1 | 24 | 5.3 | –
O=C(CN(CCCCCOc1ccc2[nH]c(=O)ccc2c1)Cc1ccccc1)N1CCC(O)CC1 [Example 20] | 2 | – | 1.2 | inhibition at 10 µM [4]: 49%
O=c1ccc2cc(OCCCCN(CCN3CCC(O)CC3)CC3CCCCC3)ccc2[nH]1 [Example 23] | 8 | -2 | 9.5 | –
O=c1ccc2cc(OCCCCN(CCN3CCC(O)CC3)c3ccccc3)ccc2[nH]1 [Example 27] | 6.7 | 7 | 7.7 | inhibition at 30 µM [4]: 40%
O=c1ccc2cc(OCCCCN(CCN3CCC(O)CC3)Cc3ccccc3)ccc2[nH]1 [Example 28] | – | 0 | – | inhibition at 10 µM [4]: 48%; IC50 [5]: 480 nM
CN(C)C(=O)[C@@H]1CCCN1CCN(CCCCCOc1ccc2[nH]c(=O)ccc2c1)Cc1ccccc1 [Example 53] | 11 | – | 13 | inhibition at 30 µM [4]: 35%
CC(=O)NCCN(CCCCOc1ccc2[nH]c(=O)ccc2c1)CC1CCCCCCC1 [Example 61] | 4.9 | 17 | 6.3 | inhibition at 30 µM [4]: 35%
CCN(CC)CCN(CCCCOc1ccc2[nH]c(=O)ccc2c1)CC1CCCCCC1 [Example 62] | 18 | 2 | 17 | inhibition at 100 µM [4]: 54%
O=C(O)CN(CCCCOc1ccc2[nH]c(=O)ccc2c1)CC1CCCCCCC1 [Example 64] | 9 | – | 10 | inhibition at 30 µM [4]: 31%
O=c1ccc2cc(OCCCCN(CC(O)CO)CC3CCCCC3)ccc2[nH]1 (stereo not drawn) [Example 68] | 15 | 30 | 7.1 | –
O=c1ccc2cc(OCCCCCN(Cc3ccccc3)Cc3ccccn3)ccc2[nH]1 [Example 70] | 40 | – | 22 | IC50 [5]: < 100 nM
COC(=O)[C@@H]1C[C@@H](O)CN1CCCCOc1ccc2[nH]c(=O)ccc2c1 [Example 73] | 25 | – | 6.9 | inhibition at 100 µM [4]: 36%
O=C(NCC1CCCCC1)[C@@H]1C[C@@H](O)CN1CCCCOc1ccc2[nH]c(=O)ccc2c1 [Example 75] | 9.1 | – | 13 | inhibition at 300 µM ([4]; dose 300 μM): 57%
CN(C1CCCCC1)S(=O)(=O)CCCOc1ccc2[nH]c(=O)ccc2c1 [Example 76] | – | – | – | inhibition at 30 µM [4]: 35%

SMILES | IC50 ([1]; Homo sapiens, Platelet) [µM] | Maximum change in heart rate [3] [beats/minute] | IC50 ([2]; Homo sapiens, Platelet) [µM] | further results
O=c1ccc2cc(OCCCCS(=O)(=O)N(CCN3CCC(O)CC3)CC3CCCCCCC3)ccc2[nH]1 [Example 79] | 1.3 | – | 2.5 | IC50 [5]: < 100 nM
O=c1ccc2cc(OCCCS(=O)(=O)N(CCN3CCC(O)CC3)Cc3ccccc3)ccc2[nH]1 [Example 83] | 11 | 9 | 4.3 | –
O=c1ccc2cc(OCCCS(=O)(=O)N(CCN3CCC(O)CC3)C3CCCCC3)ccc2[nH]1 [Example 86] | 8 | – | 12 | inhibition at 10 µM [4]: 47%
O=c1ccc2cc(OCCCCS(=O)(=O)N(CCN3CCC(O)CC3)Cc3ccccc3)ccc2[nH]1 [Example 89] | 7.7 | – | 3.8 | IC50 [5]: < 100 nM
O=c1ccc2cc(OCCCCS(=O)(=O)N(CCN3CCC(O)CC3)Cc3ccccc3Cl)ccc2[nH]1 [Example 93] | 1.2 | – | 2.6 | IC50 [5]: < 100 nM
O=c1ccc2cc(OCCCS(=O)(=O)N(CC(O)CO)CC3CCCCC3)ccc2[nH]1 (stereo not drawn) [Example 109] | 4.9 | 16 | 6.3 | –
O=c1ccc2cc(OCCCCN(Cc3ccccc3)S(=O)(=O)CCN3CCC(O)CC3)ccc2[nH]1 [Example 119] | 20 | – | 20 | inhibition at 10 µM [4]: 40%
O=c1ccc2cc(OCCCCN(Cc3ccccc3)S(=O)(=O)CCn3cncn3)ccc2[nH]1 [Example 121] | – | – | – | inhibition at 30 µM [4]: 38%
O=c1ccc2cc(OCCCCN(Cc3ccccc3)S(=O)(=O)CCCn3ccnc3)ccc2[nH]1 [Example 122] | 22 | – | 29 | –
O=c1ccc2cc(OCCCCN(Cc3ccccc3)S(=O)(=O)CCCn3cncn3)ccc2[nH]1 [Example 123] | 17 | – | 9.5 | inhibition at 10 µM [4]: 39%
O=c1ccc2cc(OCCCCN(Cc3ccccc3)S(=O)(=O)CCCN3CCC[C@H]3CO)ccc2[nH]1 [Example 126] | 10 | – | 15 | –
O=c1ccc2cc(OCCCCN(CCN3CCC(O)CC3)S(=O)(=O)CC3CCCCC3)ccc2[nH]1 [Example 130] | 14 | – | 13 | inhibition at 10 µM [4]: 43%
O=C(NCCCOc1ccc2[nH]c(=O)ccc2c1)N(CCN1CCC(O)CC1)CC1CCCCCCC1 [Example 131] | 2.4 | – | 1.3 | –
O=c1ccc2cc(OCCCNC(=S)N(CCN3CCC(O)CC3)CC3CCCCCCC3)ccc2[nH]1 [Example 132] | 2.4 | – | 1.8 | –
O=c1ccc2ccc(OCCCCN(CCN3CCC(O)CC3)CC3CCCCCCC3)cc2[nH]1 [Example 134] | – | – | – | inhibition at 10 µM [4]: 45%; IC50 [5]: 490 nM
CN(C(=S)CCCOc1ccc2[nH]c(=O)ccc2c1)C1CCCCC1 [Example 143] | – | – | 2.3 | IC50 [1]: 3.8 µM; IC50 [5]: 1440 nM
